Measurements from US20260124222A1, “ISOTHIAZOLYLCARBOXAMIDE COMPOUNDS AND THEIR USE IN THERAPY” (HOTSPOT THERAPEUTICS, INC., priority 2022, published 2026).

Biological target: T1, Avi-tagged FL MALT-1 (Homo sapiens, UniProt Q9UDY8)
T1 construct: Avi-tagged FL MALT-1 (Pharmaron, stored at −70° C.); Avi-tag; purchased Pharmaron
T1 sequence (Q9UDY8 1-824): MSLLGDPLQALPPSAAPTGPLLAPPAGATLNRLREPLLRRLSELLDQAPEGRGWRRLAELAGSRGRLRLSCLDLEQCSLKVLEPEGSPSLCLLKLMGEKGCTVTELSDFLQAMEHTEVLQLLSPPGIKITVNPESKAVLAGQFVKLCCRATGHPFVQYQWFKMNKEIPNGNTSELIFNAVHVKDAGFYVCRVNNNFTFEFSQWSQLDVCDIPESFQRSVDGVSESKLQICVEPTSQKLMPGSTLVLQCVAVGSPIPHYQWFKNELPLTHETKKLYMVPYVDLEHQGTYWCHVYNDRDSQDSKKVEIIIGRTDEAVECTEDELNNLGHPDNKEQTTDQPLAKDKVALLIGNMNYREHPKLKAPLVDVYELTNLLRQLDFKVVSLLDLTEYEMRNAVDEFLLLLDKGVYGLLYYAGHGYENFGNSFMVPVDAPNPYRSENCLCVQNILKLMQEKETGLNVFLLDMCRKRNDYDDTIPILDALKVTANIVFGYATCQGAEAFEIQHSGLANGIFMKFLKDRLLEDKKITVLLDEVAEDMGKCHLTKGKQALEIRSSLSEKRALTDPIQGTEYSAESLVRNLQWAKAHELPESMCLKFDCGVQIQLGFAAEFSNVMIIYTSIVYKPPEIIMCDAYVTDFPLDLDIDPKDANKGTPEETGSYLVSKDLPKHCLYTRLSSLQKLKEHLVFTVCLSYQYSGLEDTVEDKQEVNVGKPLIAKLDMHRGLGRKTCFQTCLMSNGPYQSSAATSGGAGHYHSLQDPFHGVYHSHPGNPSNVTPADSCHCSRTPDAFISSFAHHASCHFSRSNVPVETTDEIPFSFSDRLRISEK
Experiment: MALT-1 Fluorogenic Peptide Cleavage Assay (MALT1 inhibition assay)
Type: biochemical
Details: Ac-LRSR-AMC peptide substrate; 30 min pre-incubation, 90 min reaction at room temperature; fluorescence
Protocol: Inhibition of MALT1 activity by a small molecule was evaluated using MALT-1 Fluorogenic Peptide Cleavage Assay. The assay utilizes a quenched AMC-labelled peptide that contains the MALT-1 recognition sequence and cleavage site (LRSR). MALT-1 mediated cleavage of the peptide relieves the quenching and leads to an increase in fluorescence at excitation (342 nm) and emission (441 nm).
The following reagents were obtained commercially and used to prepare standard reagent formulations as further described below: N-2-hydroxyethylpiperazine-N-2-ethane sulfonic acid (HEPES) (1 M, pH 7.5, stored at 4° C.), sodium citrate (stored at RT), tris(2-carboxyethyl)phosphine hydrochloride (T-CEP) (500 mM, stored at −20° C.), ethylenediaminetetraacetic acid (EDTA) (500 mM, stored at RT), dimethylsulfoxide (DMSO, stored at RT), 3-[(3-cholamidopropyl)dimethylammonio]-1-propane sulphate (CHAPS) (stored at RT), dimethylsulfoxide (DMSO), DMSO (Fisher Scientific, stored at RT), Avi-tagged FL MALT-1 (Pharmaron, stored at −70° C.), Ac-LRSR-AMC Peptide (SM Biochemicals, stored at −20° C.), and ultrapure water (MILLI-Q®).
The standard reagent formulations used in this assay were prepared and stored as follows. A 1.1 M solution of sodium citrate (161.3 g, 500 mL) was prepared and stored at room temperature. A 10% (w/v) CHAPS solution (2.0 g, 20 mL) was prepared and stored at 4° C. A 500 mM HEPES solution having pH of 6.89 was prepared from 200 mL of a 1 M HEPES solution having a pH of 7.5 using concentrated hydrochloric acid and brought to a final volume of 400 mL with MILLI-Q© H2O. The substrate, 10 mM Ac-LRSR-AMC Peptide, was prepared (10 mg, 1.370 mL DMSO) and stored at −20° C.
Compounds were plated to provide a 2% DMSO final concentration using a ProxiPlate-384 Plus F Black 384-shallow well microplate. The assay-ready plates were equilibrated to room temperature. A reaction buffer (30 mL total volume) was prepared by combining HEPES (pH 6.89, 25 mM, 1.5 mL), sodium citrate (660 mM, 18.0 mL), T-CEP (1 mM, 0.06 mL), EDTA (0.1 mM, 0.06 mL), CHAPS (0.05%, 0.15 mL), DMSO (2%, 0.6 mL), and MILLI-Q® H2O (10.23 mL; 9.63 mL when backfilled to 2% DMSO) followed by thorough mixing.
MALT-1 was thawed and kept on ice. Peptide substrate was thawed on the bench under ambient conditions. A MALT-1 enzyme working stock was prepared from Avi-tagged FL MALT-1 (40 nM in a prepared reagent volume of […]) and the reaction buffer (13.0 mL). MALT1 working stock (5 μL) was added to each well of the microplate. MALT-1 was pre-incubated with compounds for 30 minutes at room temperature.
Two substrate working stocks (Km and 10×Km) were prepared. The 1×Km substrate was prepared from Ac-LRSR-AMC Peptide (50 μM in a prepared reagent volume of […]) and the reaction buffer (6.965 mL). The 10×Km substrate was prepared from Ac-LRSR-AMC Peptide ([…] in a prepared reagent volume of 196.0 μL) and the reaction buffer (6.804 mL). The reaction was initiated by the addition of substrate working stock (5 μL, 50 μM) to Km plates and the addition of substrate working stock (5 μL 280 μM) to 10×Km plates. The plates were covered and incubated on the bench at room temperature for 90 minutes.
Fluorescence intensity was determined using a CLARIOstar microplate reader (BMG LABTECH) using the optimised AMC mode. Before taking readings, a 70% gain was applied on the neutral control well. Compound data were normalised to % Inhibition and used to plot sigmoidal concentration response curves to yield various parameters including IC50.

`CC(=O)N(C)c1ncc(NC(=O)c2snc(-c3ccccc3)c2C2CC2)cc1C#N` [I-51, N-(5-CYANO-6-(N-METHYLACETAMIDO) PYRIDIN-3-YL)-4-CYCLOPROPYL-3-PHENYLISOTHIAZOLE-5-CARBOXAMIDE] and `CN1CCN(c2ncc(NC(=O)c3snc(-c4ccccc4)c3C3CC3)cc2C#N)CC1` [I-54, N-(5-CYANO-6-(4-METHYLPIPERAZIN-1-YL) PYRIDIN-3-YL)-4-CYCLOPROPYL-3-PHENYLISOTHIAZOLE-5-CARBOXAMIDE] cannot be ordered by IC50: no more than 400 nM for the first, no more than 400 nM for the second.

Going from `N#Cc1cc(NC(=O)c2snc(O)c2C2CC2)cnc1-n1nccn1` [I-52, N-(5-CYANO-6-(2H-1,2,3-TRIAZOL-2-YL) PYRIDIN-3-YL)-4-CYCLOPROPYL-3-HYDROXYISOTHIAZOLE-5-CARBOXAMIDE] to `CC(C)c1nsc(C(=O)Nc2cnc(-n3nccn3)c(C#N)c2)c1C1CC1` [I-56, N-(5-CYANO-6-(2H-1,2,3-TRIAZOL-2-YL) PYRIDIN-3-YL)-4-CYCLOPROPYL-3-ISOPROPYLISOTHIAZOLE-5-CARBOXAMIDE], the IC50 falls from greater than 2500 nM to no more than 400 nM. The second is the more potent here.

First: N#Cc1cc(NC(=O)c2snc(-c3ccccc3)c2C2CC2)cnc1N1CCOCC1 [I-53, N-(5-CYANO-6-MORPHOLINOPYRIDIN-3-YL)-4-CYCLOPROPYL-3-PHENYLISOTHIAZOLE-5-CARBOXAMIDE]
Second: CN1Cc2cc(NC(=O)c3snc(-c4ccccc4)c3C3CC3)cnc2C1=O [I-111]
The IC50 of the first is lower: no more than 400 nM for the first, greater than 2500 nM for the second.

Compared with `CN(C)C(=O)c1ccc(NC(=O)c2snc(-c3ccccc3)c2C2CC2)cc1C(F)(F)F` [I-55, 4-CYCLOPROPYL-N-(4-(DIMETHYL-CARBAMOYL)-3-(TRIFLUOROMETHYL) PHENYL)-3-PHENYLISOTHIAZOLE-5-CARBOXAMIDE], `CN1Cc2cc(NC(=O)c3snc(-c4ccccc4)c3C3CC3)ccc2C1=O` [I-62, 4-CYCLOPROPYL-N-(2-METHYL-1-OXOISOINDOLIN-5-YL)-3-PHENYLISOTHIAZOLE-5-CARBOXAMIDE] is higher in IC50: no more than 400 nM for the first, greater than 2500 nM for the second. The first is the more potent here.

`O=C(Nc1cnc(-n2nccn2)c(Cl)c1)c1nsc(-c2ccccc2)c1C(F)(F)F` [I-57, N-(5-CHLORO-6-(2H-1,2,3-TRIAZOL-2-YL) PYRIDIN-3-YL)-5-PHENYL-4-(TRIFLUOROMETHYL)ISOTHIAZOLE-3-CARBOXAMIDE] and `O=C(Nc1cnc(-n2nccn2)c(Cl)c1)c1snc(-c2cccc3c(=O)[nH]ccc23)c1C(F)(F)F` [I-107] cannot be ordered by IC50: no more than 400 nM for the first, no more than 400 nM for the second.

Going from `O=C(Nc1cnc(C(=O)N2CC(O)C2)c(Cl)c1)c1snc(-c2ccccc2)c1C1CC1` [I-58, N-(5-CHLORO-6-(3-HYDROXYAZETIDINE-1-CARBONYL)PYRIDIN-3-YL)-4-CYCLOPROPYL-3-PHENYLISOTHIAZOLE-5-CARBOXAMIDE] to `O=C(Nc1ccc(C(=O)N2CC(O)C2)nc1)c1snc(-c2ccccc2)c1C1CC1` [I-59, 4-CYCLOPROPYL-N-(6-(3-HYDROXY-AZETIDINE-1-CARBONYL)PYRIDIN-3-YL)-3-PHENYLISOTHIAZOLE-5-CARBOXAMIDE], the IC50 rises from no more than 400 nM to greater than 2500 nM.

`CC(C)c1nsc(C(=O)Nc2cnc(-n3nccn3)c(Cl)c2)c1C1CC1` [I-60, N-(5-CHLORO-6-(2H-1,2,3-TRIAZOL-2-YL) PYRIDIN-3-YL)-4-CYCLOPROPYL-3-ISOPROPYLISOTHIAZOLE-5-CARBOXAMIDE] and `O=C(Nc1cnc(-n2nccn2)c(Cl)c1)c1snc(-c2cccc3ncccc23)c1C1CC1` [I-118] cannot be ordered by IC50: no more than 400 nM for the first, no more than 400 nM for the second.

Compared with `N#Cc1cc(NC(=O)c2snc(-c3ccccc3)c2C2(O)COC2)cnc1-n1nccn1` [I-61], `N#Cc1cc(NC(=O)c2snc(-c3cccn4nccc34)c2C2CC2)cnc1-n1nccn1` [I-114] is lower in IC50: greater than 2500 nM for the first, no more than 400 nM for the second.

First: Cn1ccc2cc(NC(=O)c3snc(-c4ccccc4)c3C3CC3)ccc2c1=O [I-98]
Second: Cc1cc(NC(=O)c2snc(-c3cccc4ncsc34)c2C2CC2)ccn1 [I-104]
The IC50 of the first is higher: greater than 2500 nM for the first, no more than 400 nM for the second.

`O=C(Nc1cnc(-n2nccn2)c(Cl)c1)c1snc(-c2cccc3[nH]c(=O)ccc23)c1C(F)(F)F` [I-99] and `COc1ccc2c(-c3nsc(C(=O)Nc4cnc(-n5nccn5)c(Cl)c4)c3C(F)(F)F)cccc2n1` [I-105] cannot be ordered by IC50: no more than 400 nM for the first, no more than 400 nM for the second.

`N#Cc1cc(NC(=O)c2snc(-c3cccc4ncsc34)c2C2CC2)cnc1-n1nccn1` [I-100] and `N#Cc1cc(NC(=O)c2snc(-c3cccc4ncoc34)c2C2CC2)cnc1-n1nccn1` [I-109] cannot be ordered by IC50: no more than 400 nM for the first, no more than 400 nM for the second.

`Cn1ncc2cccc(-c3nsc(C(=O)Nc4cnc(-n5nccn5)c(C#N)c4)c3C3CC3)c21` [I-101] and `Cn1nnc2cccc(-c3nsc(C(=O)Nc4cnc(-n5nccn5)c(C#N)c4)c3C3CC3)c21` [I-120] cannot be ordered by IC50: no more than 400 nM for the first, no more than 400 nM for the second.

First: CN(C)c1nsc(C(=O)Nc2cnc(-n3nccn3)c(C#N)c2)c1C(F)(F)F [I-102]
Second: Cn1cccc(-c2nsc(C(=O)Nc3cnc(-n4nccn4)c(C#N)c3)c2C(F)(F)F)c1=O [I-108]
The IC50 of the first is lower: no more than 400 nM for the first, 1000 to 2500 nM for the second. The first is the more potent here.

`O=C(Nc1ccnc(C(F)(F)F)c1)c1snc(-c2cccc3ncsc23)c1C1CC1` [I-103] and `O=C(Nc1cncc(C(F)(F)F)c1)c1snc(-c2cccc3ncccc23)c1C1CC1` [I-119] cannot be ordered by IC50: no more than 400 nM for the first, no more than 400 nM for the second.

`COc1nccc2c(-c3nsc(C(=O)Nc4cnc(-n5nccn5)c(Cl)c4)c3C(F)(F)F)cccc12` [I-106] and `N#Cc1cc(NC(=O)c2snc(-c3cccc4ncccc34)c2C2CC2)cnc1-n1nccn1` [I-123] cannot be ordered by IC50: no more than 400 nM for the first, no more than 400 nM for the second.

First: N#Cc1cc(NC(=O)c2snc(C3CCOC3)c2C2CC2)cnc1-n1nccn1 (stereo not drawn) [I-110]
Second: CN1CCC(c2nsc(C(=O)Nc3cnc(-n4nccn4)c(C#N)c3)c2C2CC2)CC1 [I-122]
The IC50 of the first is lower: 400 to 1000 nM for the first, greater than 2500 nM for the second. The first is the more potent here.

`Cc1cccnc1-c1nsc(C(=O)Nc2cnc(-n3nccn3)c(C#N)c2)c1C1CC1` [I-112] and `Cc1cn(C)nc1-c1nsc(C(=O)Nc2cnc(-n3nccn3)c(C#N)c2)c1C1CC1` [I-116] cannot be ordered by IC50: no more than 400 nM for the first, no more than 400 nM for the second.

`Cc1cc(NC(=O)c2snc(-c3cccc4ncoc34)c2C2CC2)cnc1-n1nccn1` [I-113] and `O=C(Nc1cnc(C(=O)N2CC(O)C2)c(Cl)c1)c1snc(-c2cccc3ncsc23)c1C1CC1` [I-117] cannot be ordered by IC50: no more than 400 nM for the first, no more than 400 nM for the second.

First: N#Cc1cc(NC(=O)c2snc(C3CCOC3)c2C2CC2)cnc1-n1nccn1 (stereo not drawn) [I-115]
Second: CC(=O)N1CCC(c2nsc(C(=O)Nc3cnc(-n4nccn4)c(C#N)c3)c2C2CC2)CC1 [I-121]
The IC50 of the first is lower: no more than 400 nM for the first, 1000 to 2500 nM for the second.

For `CC(C)c1nsc(C(=O)Nc2ccnc(C(F)(F)F)c2)c1C1CC1` [I-124], the IC50 was 1000 to 2500 nM.
